Usually IC50 stands for the midpoint of a concentration-inhibition curve. A low value points to greater potency in that assay.

Where a name gives a salt, the structure may show the parent alone.

The target of the experiment is hATX/ENPP2 (Homo sapiens, UniProt Q13822). Kind of experiment: hATX/ENPP2 biochemical assay using 16:0-LPC as substrate (Amplex Red/choline oxidase/HRP fluorescence). As to conditions: hENPP2 2.5 nM, LPC (16:0) substrate. The method, then: The enzyme is diluted in 50 mM Tris-HCl pH 8.0, 140 mM NaCl, 5 mM CaCl2, 0.01% Triton X-100 in a total volume of 5 μL. The aqueous solution of enzyme is added to the wells and incubated with different concentrations of the compounds at room temperature for 15 min. The reaction is started by the addition of 5 μL of 80 μM LPC (16:0) and 10 μL of the detection mixture containing 200 μM Amplex Red, 10 U/mL choline oxidase and 4 U/mL HRP. Fluorescence at 590 nm was measured kinetically with excitation at 530 nm. The slope of the curve (from 60 to 70 min of the reaction time) was used to calculate the compounds' IC50 values.

`CCc1nc2ccc(-c3cnc(C(=O)N4CC[C@H](O)C4)nc3)cn2c1N(C)c1nc(-c2ccc(F)cc2)c(C#N)s1` [Compound 48, (S)-2-((2-ethyl-6-(2-(3-hydroxypyrrolidine-1-carbonyl)pyrimidin-5-yl)imidazo[1,2-a]pyridin-3-yl)(methyl)amino)-4-(4-fluorophenyl) thiazole-5-carbonitrile] registered an IC50 of 20 to 200 nM. As for `CCc1nc2ccc(-c3cnc(C(=O)N4CC[C@@H](O)C4)nc3)cn2c1N(C)c1nc(-c2ccc(F)cc2)c(C#N)s1` [Compound 49, (R)-2-((2-ethyl-6-(2-(3-hydroxypyrrolidine-1-carbonyl)pyrimidin-5-yl)imidazo[1,2-a]pyridin-3-yl)(methyl)amino)-4-(4-fluorophenyl) thiazole-5-carbonitrile], the IC50 fell in the range of 20 to 200 nM. Take `CCc1nc2ccc(-c3cnc(C(=O)NC4CNC4)nc3)cn2c1N(C)c1nc(-c2ccc(F)cc2)c(C#N)s1` [Compound 50, N-(azetidin-3-yl)-5-(3-((5-cyano-4-(4-fluorophenyl)thiazol-2-yl) (methyl)amino)-2-ethylimidazo[1,2-a]pyridin-6-yl)pyrimidine-2-carboxamide]: the IC50 lay within 20 to 200 nM. `CCc1nc2ccc(-c3cnc(C(=O)NC4CCNCC4)nc3)cn2c1N(C)c1nc(-c2ccc(F)cc2)c(C#N)s1` [Compound 51, 5-(3-((5-cyano-4-(4-fluorophenyl)thiazol-2-yl) (methyl)amino)-2-ethylimidazo[1,2-a]pyridin-6-yl)-N-(piperidin-4-yl)pyrimidine-2-carboxamide] yielded an IC50 of 20 to 200 nM. Under `CCc1nc2ccc(-c3cnc(CC(=O)N4CC(O)C4)nc3)cn2c1N(C)c1nc(-c2ccc(F)cc2)c(C#N)s1` [Compound 52, 2-((2-ethyl-6-(2-(2-(3-hydroxyazetidin-1-yl)-2-oxoethyl)pyrimidin-5-yl)imidazo[1,2-a]pyridin-3-yl)(methyl)amino)-4-(4-fluorophenyl)thiazole-5-carbonitrile] stands 20 to 200 nM. On to `CCc1nc2ccc(-c3cnc(CC(=O)N4CC(NC5CNC5)C4)nc3)cn2c1N(C)c1nc(-c2ccc(F)cc2)c(C#N)s1` [Compound 53, 2-((6-(2-(2-(3-(azetidin-3-ylamino)azetidin-1-yl)-2-oxoethyl)pyrimidin-5-yl)-2-ethylimidazo[1,2-a]pyridin-3-yl)(methyl)amino)-4-(4-fluorophenyl)thiazole-5-carbonitrile], for which the IC50 was in the range of 20 to 200 nM. Turning to `CCc1nc2ccc(-c3cnc(CC(=O)N4CC(NC)C4)nc3)cn2c1N(C)c1nc(-c2ccc(F)cc2)c(C#N)s1` [Compound 54, 2-((2-ethyl-6-(2-(2-(3-(methylamino)azetidin-1-yl)-2-oxoethyl)pyrimidin-5-yl)imidazo[1,2-a]pyridin-3-yl)(methyl)amino)-4-(4-fluorophenyl) thiazole-5-carbonitrile], the IC50 lay in the range of 20 to 200 nM. Under `CCc1nc2ccc(-c3cnc(CC(=O)N4CC[C@H](O)C4)nc3)cn2c1N(C)c1nc(-c2ccc(F)cc2)c(C#N)s1` [Compound 55, (S)-2-((2-ethyl-6-(2-(2-(3-hydroxypyrrolidin-1-yl)-2-oxoethyl)pyrimidin-5-yl)imidazo[1,2-a]pyridin-3-yl)(methyl)amino)-4-(4-fluorophenyl)thiazole-5-carbonitrile] stands 20 to 200 nM; under `CCc1nc2ccc(-c3cnc(CC(=O)N4CC[C@@H](O)C4)nc3)cn2c1N(C)c1nc(-c2ccc(F)cc2)c(C#N)s1` [Compound 56, (R)-2-((2-ethyl-6-(2-(2-(3-hydroxypyrrolidin-1-yl)-2-oxoethyl)pyrimidin-5-yl)imidazo[1,2-a]pyridin-3-yl)(methyl)amino)-4-(4-fluorophenyl)thiazole-5-carbonitrile], 20 to 200 nM. Take `CCc1nc2ccc(-c3cnc(CC(=O)N4CCC(O)CC4)nc3)cn2c1N(C)c1nc(-c2ccc(F)cc2)c(C#N)s1` [Compound 57, 2-((2-ethyl-6-(2-(2-(4-hydroxypiperidin-1-yl)-2-oxoethyl)pyrimidin-5-yl)imidazo[1,2-a]pyridin-3-yl)(methyl)amino)-4-(4-fluorophenyl) thiazole-5-carbonitrile]: the IC50 lay within 20 to 200 nM. For the compound `CCc1nc2ccc(-c3cnc(CC(=O)N4CCNCC4)nc3)cn2c1N(C)c1nc(-c2ccc(F)cc2)c(C#N)s1` [Compound 58, 2-((2-ethyl-6-(2-(2-oxo-2-(piperazin-1-yl)ethyl)pyrimidin-5-yl)imidazo[1,2-a]pyridin-3-yl)(methyl)amino)-4-(4-fluorophenyl)thiazole-5-carbonitrile], the IC50 lay in the range of 20 to 200 nM. `CCc1nc2ccc(-c3cnc(CC(=O)N4CCOCC4)nc3)cn2c1N(C)c1nc(-c2ccc(F)cc2)c(C#N)s1` [Compound 59, 2-((2-ethyl-6-(2-(2-morpholino-2-oxoethyl)pyrimidin-5-yl)imidazo[1,2-a]pyridin-3-yl)(methyl)amino)-4-(4-fluorophenyl)thiazole-5-carbonitrile] gave an IC50 of 20 to 200 nM. `CCc1nc2ccc(-c3cnc(CC(N)=O)nc3)cn2c1N(C)c1nc(-c2ccc(F)cc2)c(C#N)s1` [Compound 60, 2-(5-(3-((5-cyano-4-(4-fluorophenyl)thiazol-2-yl)(methyl)amino)-2-ethylimidazo[1,2-a]pyridin-6-yl)pyrimidin-2-yl)acetamide] showed a half-maximal inhibitory concentration (IC50) of 20 to 200 nM. In turn, `CCc1nc2ccc(-c3cnc(CC(=O)NC)nc3)cn2c1N(C)c1nc(-c2ccc(F)cc2)c(C#N)s1` [Compound 61, 2-(5-(3-((5-cyano-4-(4-fluorophenyl)thiazol-2-yl)(methyl)amino)-2-ethylimidazo[1,2-a]pyridin-6-yl)pyrimidin-2-yl)-N-methyl acetamide] came in with an IC50 of 20 to 200 nM. On to `CCc1nc2ccc(-c3cnc(CC(=O)NC4CC4)nc3)cn2c1N(C)c1nc(-c2ccc(F)cc2)c(C#N)s1` [Compound 62, 2-(5-(3-((5-cyano-4-(4-fluorophenyl)thiazol-2-yl)(methyl)amino)-2-ethylimidazo[1,2-a]pyridin-6-yl)pyrimidin-2-yl)-N-cyclopropyl acetamide], for which the IC50 lay in the range of 20 to 200 nM.

`CCc1nc2ccc(-c3cnc(CC(=O)NC4CNC4)nc3)cn2c1N(C)c1nc(-c2ccc(F)cc2)c(C#N)s1` [Compound 63, N-(azetidin-3-yl)-2-(5-(3-((5-cyano-4-(4-fluorophenyl)thiazol-2-yl)(methyl)amino)-2-ethylimidazo[1,2-a]pyridin-6-yl)pyrimidin-2-yl)acetamide] gave an IC50 above 200 nM.

Compound `CCc1nc2ccc(-c3cnc(CC(=O)NC4(C#N)CC4)nc3)cn2c1N(C)c1nc(-c2ccc(F)cc2)c(C#N)s1` [Compound 64, 2-(5-(3-((5-cyano-4-(4-fluorophenyl)thiazol-2-yl)(methyl)amino)-2-ethylimidazo[1,2-a]pyridin-6-yl)pyrimidin-2-yl)-N-(1-cyanocyclopropyl)acetamide] came in with an IC50 of 20 to 200 nM. In the case of `CCc1nc2ccc(-c3cnc(CC(=O)NC4CCNCC4)nc3)cn2c1N(C)c1nc(-c2ccc(F)cc2)c(C#N)s1` [Compound 65, 2-(5-(3-((5-cyano-4-(4-fluorophenyl)thiazol-2-yl)(methyl)amino)-2-ethylimidazo [1,2-a]pyridin-6-yl)pyrimidin-2-yl)-N-(piperidin-4-yl)acetamide], the IC50 lay within 20 to 200 nM. With `CCc1nc2ccc(-c3cnc(N4CCN(C(=O)NC5CCNCC5)CC4)nc3)cn2c1N(C)c1nc(-c2ccc(F)cc2)c(C#N)s1` [Compound 67, 4-(5-(3-((5-cyano-4-(4-fluorophenyl)thiazol-2-yl)(methyl)amino)-2-ethylimidazo[1,2-a]pyridin-6-yl)pyrimidin-2-yl)-N-(piperidin-4-yl)piperazine-1-carboxamide], the IC50 lay within 20 to 200 nM.

In the case of `CCc1nc2ccc(-c3cnc(N4CCC(NC5CNC5)CC4)nc3)cn2c1N(C)c1nc(-c2ccc(F)cc2)c(C#N)s1` [Compound 68 formate, 2-((6-(2-(4-(azetidin-3-ylamino)piperidin-1-yl)pyrimidin-5-yl)-2-ethylimidazo[1,2-a]pyridin-3-yl)(methyl)amino)-4-(4-fluorophenyl)thiazole-5-carbonitrile formate], the IC50 is at most 20 nM. Under `CCc1nc2ccc(-c3cnc(N4CCC(NC5CCNCC5)CC4)nc3)cn2c1N(C)c1nc(-c2ccc(F)cc2)c(C#N)s1` [Compound 69 formate, 2-((2-ethyl-6-(2-(4-(piperidin-4-ylamino)piperidin-1-yl)pyrimidin-5-yl)imidazo[1,2-a]pyridin-3-yl)(methyl)amino)-4-(4-fluorophenyl) thiazole-5-carbonitrile formate] stands at most 20 nM; under `CCc1nc2ccc(-c3cnc(N4CCC(C(=O)NC5CNC5)CC4)nc3)cn2c1N(C)c1nc(-c2ccc(F)cc2)c(C#N)s1` [Compound 72 hydrochloride, N-(azetidin-3-yl)-1-(5-(3-((5-cyano-4-(4-fluorophenyl)thiazol-2-yl)(methyl)amino)-2-ethylimidazo[1,2-a]pyridin-6-yl)pyrimidin-2-yl)piperidine-4-carboxamide hydrochloride], at most 20 nM; under `CCc1nc2ccc(-c3cnc(N4CCC(C(=O)NC5CCNCC5)CC4)nc3)cn2c1N(C)c1nc(-c2ccc(F)cc2)c(C#N)s1` [Compound 73, 1-(5-(3-((5-cyano-4-(4-fluorophenyl)thiazol-2-yl)(methyl)amino)-2-ethylimidazo[1,2-a]pyridin-6-yl)pyrimidin-2-yl)-N-(piperidin-4-yl)piperidine-4-carboxamide], at most 20 nM. Regarding `CCc1nc2ccc(-c3cnc(N4CCC(NC(=O)[C@H]5C[C@H](O)CN5)CC4)nc3)cn2c1N(C)c1nc(-c2ccc(F)cc2)c(C#N)s1` [Compound 74, (2R,4S)—N-(1-(5-(3-((5-cyano-4-(4-fluorophenyl)thiazol-2-yl)(methyl)amino)-2-ethylimidazo[1,2-a]pyridin-6-yl)pyrimidin-2-yl)piperidin-4-yl)-4-hydroxypyrrolidine-2-carboxamide], the IC50 is at most 20 nM.
